This is an account of results in ChEMBL document CHEMBL6074662, “Antibacterial, Antibiofilm, and Anti-inflammatory Effects of a Novel Thrombin-Derived Peptide in Sepsis Models: Insights into Underlying Mechanisms” (J Med Chem, 2024).

Assay [1] has as its system Staphylococcus aureus. Kind of assay: Bactericidal activity against methicillin-resistant Staphylococcus aureus CCARM 3089 at 0.5 to 2 uM incubated for 12 hrs by time-kill assay. The class given is functional, organism-based. The note with it: dose 0.5-2 µM.
The test system of assay [2] is Acinetobacter baumannii. Kind of assay: Antibacterial activity against carbapenem-resistant Acinetobacter baumannii-induced sepsis shock in ICR mouse model assessed as bacterial growth inhibition in kidney at 1 mg/kg, ip pretreated with compound for 1 hr followed by bacterial infection measured after 16 hrs relative to control. The class given is functional. Particulars: time 17 hrs.

For assay [3], the system named is Mus musculus. Kind of assay: Antiseptic activity in sepsis shock ICR mouse model infected with carbapenem-resistant Acinetobacter baumannii assessed as reduction in bacterial count in kidney at 1 mg/kg, ip pre-infected with bacteria followed by compound administration 3 hrs post-infection measured after 16 hrs relative to control. The class given is functional. Details: scale not given: the % may be the effect or the level left.

Assay [4] has as its system Mus musculus. The assay can be described thus: Antiseptic activity in sepsis shock ICR mouse model infected with carbapenem-resistant Acinetobacter baumannii assessed as reduction in serum IL-6 level at 1 mg/kg, ip pretreated with compound for 1 hr followed by bacterial infection measured after 16 hrs relative to control. The class given is functional. On the set-up: scale not given: the % may be the effect or the level left. The note with it: time 17 hrs.

The subject of assay [5] is RAW264.7. Kind of assay: Displacement of FITC-labeled LPS pre-bound to surface receptors of mouse RAW264.7 cells incubated for 1 hr by flow cytometry. The class given is cell-based.
For assay [6], the system named is Lipopolysaccharide (LPS). Kind of assay: Displacement of BODIPY-TR-cadaverine from Escherichia coli 0111:B4 LPS at 16 uM incubated for 30 mins by fluorescence based assay relative to control.
The test system of assay [7] is Mus musculus. Kind of assay: Antiseptic activity in sepsis shock ICR mouse model infected with carbapenem-resistant Acinetobacter baumannii assessed as decrease in endotoxin level in serum at 1 mg/kg, ip pretreated with compound for 1 hr followed by bacterial infection measured after 16 hrs relative to control. The class given is functional. On the set-up: scale not given: the % may be the effect or the level left. Particulars: time 17 hrs.

Assay [8] concerns Mus musculus. The assay can be described thus: Antiseptic activity in sepsis shock ICR mouse model infected with carbapenem-resistant Acinetobacter baumannii assessed as reduction in bacterial count in lungs at 1 mg/kg, ip pre-infected with bacteria followed by compound administration 1 hr post-infection measured after 16 hrs relative to control. The class given is functional. On the set-up: scale not given: the % may be the effect or the level left.

The test system of assay [9] is Mus musculus. The assay can be described thus: Antiseptic activity in sepsis shock ICR mouse model infected with carbapenem-resistant Acinetobacter baumannii assessed as reduction in serum IL-6 level at 1 mg/kg, ip pre-infected with bacteria followed by compound administration 3 hrs post-infection measured after 16 hrs relative to control. The class given is functional. On the set-up: scale not given: the % may be the effect or the level left.

Assay [10] has as its system Mus musculus. The assay can be described thus: Antiseptic activity in sepsis shock ICR mouse model infected with carbapenem-resistant Acinetobacter baumannii assessed as reduction in bacterial count in liver at 1 mg/kg, ip pretreated with compound for 1 hr followed by bacterial infection measured after 16 hrs relative to control. The class given is functional. Details: scale not given: the % may be the effect or the level left. Particulars: time 17 hrs.

For assay [11], the system named is Mus musculus. The assay can be described thus: Antiseptic activity in sepsis shock ICR mouse model infected with carbapenem-resistant Acinetobacter baumannii assessed as reduction in bacterial count in lungs at 1 mg/kg, ip pretreated with compound for 1 hr followed by bacterial infection measured after 16 hrs relative to control. The class given is functional. On the set-up: scale not given: the % may be the effect or the level left. Particulars: time 17 hrs.

Assay [12] relates to Mus musculus. The assay can be described thus: Antiseptic activity in sepsis shock ICR mouse model infected with carbapenem-resistant Acinetobacter baumannii assessed as reduction in bacterial count in lungs at 1 mg/kg, ip pre-infected with bacteria followed by compound administration 3 hrs post-infection measured after 16 hrs relative to control. The class given is functional. Details: scale not given: the % may be the effect or the level left.

Assay [13] has as its system Pseudomonas aeruginosa. Kind of assay: Synergistic bactericidal activity against multidrug-resistant Pseudomonas aeruginosa CCARM 2095 at 0.5 to 2 uM incubated for 12 hrs in presence of oxacillin by time-kill assay. The class given is functional, organism-based. The note with it: dose 0.5-2 µM.
The target of assay [14] is Toll-like receptor 4 (Homo sapiens) (UniProt O00206). Kind of assay: Inhibition of LPS-induced human TLR4 activation expressed in HEK-Blue hTLR4 cells assessed as decrease in SEAP activity at 25 uM pretreated for 1 hr followed by LPS treatment for 16 hrs by absorbance based assay relative to control. The class given is cell-based. The note with it: time 17.0 hrs.
The target of assay [15] is T1, Toll-like receptor 4 (Mus musculus) (UniProt Q9QUK6).
T1 sequence (whole entry): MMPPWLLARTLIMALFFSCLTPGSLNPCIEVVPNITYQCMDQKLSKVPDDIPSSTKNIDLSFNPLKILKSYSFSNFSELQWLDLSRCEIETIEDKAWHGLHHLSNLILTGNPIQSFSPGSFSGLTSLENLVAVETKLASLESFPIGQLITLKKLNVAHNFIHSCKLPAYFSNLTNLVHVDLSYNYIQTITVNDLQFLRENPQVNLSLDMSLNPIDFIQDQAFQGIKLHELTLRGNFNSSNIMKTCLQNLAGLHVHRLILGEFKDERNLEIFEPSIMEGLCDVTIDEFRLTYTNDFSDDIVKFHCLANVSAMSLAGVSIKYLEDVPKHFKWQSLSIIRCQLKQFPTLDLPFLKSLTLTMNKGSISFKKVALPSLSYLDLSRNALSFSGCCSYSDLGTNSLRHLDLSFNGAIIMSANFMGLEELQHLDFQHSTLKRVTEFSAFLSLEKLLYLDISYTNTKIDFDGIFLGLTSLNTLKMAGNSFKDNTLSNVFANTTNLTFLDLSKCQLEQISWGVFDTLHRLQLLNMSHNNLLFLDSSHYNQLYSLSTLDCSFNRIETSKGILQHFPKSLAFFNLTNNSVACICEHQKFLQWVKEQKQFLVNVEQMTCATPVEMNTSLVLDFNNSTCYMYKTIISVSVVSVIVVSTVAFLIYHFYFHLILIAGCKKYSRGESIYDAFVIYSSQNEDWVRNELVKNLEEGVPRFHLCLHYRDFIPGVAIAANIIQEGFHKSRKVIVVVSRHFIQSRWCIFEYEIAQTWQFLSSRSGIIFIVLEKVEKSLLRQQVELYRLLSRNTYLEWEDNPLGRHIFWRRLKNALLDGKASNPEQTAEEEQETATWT
Kind of assay: Inhibition of LPS-induced TLR4 activation in mouse RAW264.7 cells assessed as decrease in p38 MAPK phosphorylation at 2 uM pretreated for 1 hr followed by LPS treatment for 30 mins by Western blot analysis relative to control. The class given is cell-based. Particulars: time 90.0 min.

Assay [16] deals with Mus musculus. The assay can be described thus: Antiseptic activity in sepsis shock ICR mouse model infected with carbapenem-resistant Acinetobacter baumannii assessed as reduction in bacterial count in kidney at 1 mg/kg, ip pre-infected with bacteria followed by compound administration 1 hr post-infection measured after 16 hrs relative to control. Details: scale not given: the % may be the effect or the level left. The class given is functional.

Assay [17] relates to Mus musculus. Kind of assay: Antiseptic activity in sepsis shock ICR mouse model infected with carbapenem-resistant Acinetobacter baumannii assessed as decrease in IL-6 level in serum at 1 mg/kg, ip pretreated with compound for 1 hr followed by bacterial infection measured after 16 hrs relative to control. The class given is functional. On the set-up: scale not given: the % may be the effect or the level left. The note with it: time 17 hrs.

Assay [18] deals with Acinetobacter baumannii. The assay can be described thus: Antibacterial activity against carbapenem-resistant Acinetobacter baumannii-induced sepsis shock in ICR mouse model assessed as bacterial growth inhibition in lung at 1 mg/kg, ip pretreated with compound for 1 hr followed by bacterial infection measured after 16 hrs relative to control. Particulars: time 17 hrs. The class given is functional.

The subject of assay [19] is Mus musculus. The assay can be described thus: Antiseptic activity in sepsis shock ICR mouse model infected with carbapenem-resistant Acinetobacter baumannii assessed as decrease in IL-1beta level in serum at 1 mg/kg, ip pretreated with compound for 1 hr followed by bacterial infection measured after 16 hrs relative to control. The class given is functional. On the set-up: scale not given: the % may be the effect or the level left. Particulars: time 17 hrs.

Assay [20] concerns Mus musculus. Kind of assay: Antiseptic activity in sepsis shock ICR mouse model infected with carbapenem-resistant Acinetobacter baumannii assessed as reduction in bacterial count in kidney at 1 mg/kg, ip pretreated with compound for 1 hr followed by bacterial infection measured after 16 hrs relative to control. The class given is functional. On the set-up: scale not given: the % may be the effect or the level left. Particulars: time 17 hrs.

In assay [21] the test system is Pseudomonas aeruginosa. The assay can be described thus: Bactericidal activity against multidrug-resistant Pseudomonas aeruginosa CCARM 2095 at 0.5 to 2 uM incubated for 12 hrs by time-kill assay. The class given is functional, organism-based. The note with it: dose 0.5-2 µM.

The source made the active and inactive calls. No cut-off for these calls is given here. Some results are limits rather than exact numbers.

Sequence of Toll-like receptor 4 (Homo sapiens) (O00206 whole entry): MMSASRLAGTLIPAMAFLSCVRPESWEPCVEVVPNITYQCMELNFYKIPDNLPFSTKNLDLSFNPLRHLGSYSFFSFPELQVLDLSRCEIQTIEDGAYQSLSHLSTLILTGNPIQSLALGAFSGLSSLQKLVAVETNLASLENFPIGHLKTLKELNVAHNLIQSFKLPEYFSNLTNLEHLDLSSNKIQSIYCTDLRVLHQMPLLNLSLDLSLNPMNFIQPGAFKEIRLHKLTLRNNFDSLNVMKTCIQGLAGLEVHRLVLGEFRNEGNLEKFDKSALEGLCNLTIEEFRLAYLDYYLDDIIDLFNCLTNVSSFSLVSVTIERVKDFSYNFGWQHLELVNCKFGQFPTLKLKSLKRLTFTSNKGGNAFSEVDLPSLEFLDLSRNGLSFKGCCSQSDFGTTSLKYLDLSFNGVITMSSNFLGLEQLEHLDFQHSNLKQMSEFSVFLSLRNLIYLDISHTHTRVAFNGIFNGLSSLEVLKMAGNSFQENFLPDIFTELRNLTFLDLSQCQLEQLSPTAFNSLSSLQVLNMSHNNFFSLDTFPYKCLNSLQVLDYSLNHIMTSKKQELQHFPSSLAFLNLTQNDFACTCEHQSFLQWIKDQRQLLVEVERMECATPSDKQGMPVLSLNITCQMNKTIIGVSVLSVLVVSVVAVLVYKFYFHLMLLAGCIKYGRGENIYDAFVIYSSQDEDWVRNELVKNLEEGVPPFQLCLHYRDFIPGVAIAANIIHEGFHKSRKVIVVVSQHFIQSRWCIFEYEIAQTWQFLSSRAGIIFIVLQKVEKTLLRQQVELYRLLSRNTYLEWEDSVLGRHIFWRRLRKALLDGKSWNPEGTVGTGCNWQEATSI

In the case of H-GVFRLKKWIKKVIKKWGK-NH2, the result in assay [1] was inactive.
For H-GVFRLKKWLKKVKKWGK-NH2, the inhibition in vivo at 1 mg/kg in assay [2] came out at 88.1%; in [18] it was 96.5%. Also, the Activity was 91.8% in [3]; 100% in assay [4]; “Active; Activity Similar To Ll-37” in assay [5]; 75% in assay [6]; more than 56.1% in assay [7]; 92.3% in assay [8]. In addition, the Activity in assay [9] was 14.8%; in assay [10] it was 99.7%; in assay [11], 99%; in [12] it was 25%; in [16] it was 96.7%; in assay [17] it was 86.3%. Also, the Activity amounted to 68.7% in assay [19] and 99.6% in [20]. The outcome in [13] was Active. For the same substance, the values for the inhibition in [14] and in [15] were 100% and 63%, respectively. In addition, in [21], the outcome was inactive.
